By IC50 is commonly meant the point on the concentration scale where inhibition reaches its midpoint.

The target of this experiment is Tyrosine-protein kinase Lck (Homo sapiens) (UniProt P06239). As to the kind of experiment: PubChem AID 1671316. The conditions noted are these: Z'-LYTE FRET kinase assay, recombinant LCK.
Tyrosine-protein kinase Lck (Homo sapiens), sequence (P06239 whole entry, looked up): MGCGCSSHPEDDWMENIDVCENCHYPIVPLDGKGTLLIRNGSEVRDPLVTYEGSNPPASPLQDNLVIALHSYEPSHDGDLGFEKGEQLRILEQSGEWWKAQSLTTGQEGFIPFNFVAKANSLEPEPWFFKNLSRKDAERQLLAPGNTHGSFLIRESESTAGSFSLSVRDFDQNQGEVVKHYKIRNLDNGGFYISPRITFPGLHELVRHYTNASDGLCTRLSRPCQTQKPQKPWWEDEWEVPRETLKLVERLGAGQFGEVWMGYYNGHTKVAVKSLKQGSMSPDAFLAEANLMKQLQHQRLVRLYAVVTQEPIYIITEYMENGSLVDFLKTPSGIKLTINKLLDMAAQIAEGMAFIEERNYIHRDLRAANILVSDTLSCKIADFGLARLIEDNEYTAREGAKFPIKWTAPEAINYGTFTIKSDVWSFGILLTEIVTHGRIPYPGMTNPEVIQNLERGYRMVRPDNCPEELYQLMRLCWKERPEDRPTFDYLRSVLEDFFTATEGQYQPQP

Turning to `COc1cc2ncnc(Nc3cccc(Cl)c3)c2cc1OC`, the IC50 was 0.799 µM.

The values above are taken from PubChem BioAssay AID1671316.
